Each structure is given as a SMILES string. Where two headings read alike, the source gives them in different places.

For 23 molecules, IC50 results are on record in patent US20220356186A1, “PERK INHIBITING PYRROLOPYRIMIDINE COMPOUNDS” (HiberCell, Inc., priority 2019, published 2022).

In assay [1] the test system is GFP-eIF2α in HEK293 cells. In words: PERK cellular assay, TR-FRET in HEK293-EGFP-eIF2a cells after tunicamycin-induced ER stress. To be noted: HEK293-EGFP-eIF2a cells, tunicamycin 2 hours, read-out: Cellular eIF2α IC50. It counts as cell-based. Put shortly: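 HEK293 cells stably expressing GFP-eIF2α, plated 5000 cells/well overnight, pretreated with inhibitors 30 min at 37 °C, then ER stress induced with tunicamycin […] for 2 h.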

Assay [2] has as its target T1, EIF2AK3 (PERK) catalytic domain (amino acids 536-1116) (Homo sapiens, UniProt Q9NZJ5).
T1 construct: EIF2AK3 (PERK) catalytic domain (amino acids 536-1116)
T1 sequence (Q9NZJ5 536-1116): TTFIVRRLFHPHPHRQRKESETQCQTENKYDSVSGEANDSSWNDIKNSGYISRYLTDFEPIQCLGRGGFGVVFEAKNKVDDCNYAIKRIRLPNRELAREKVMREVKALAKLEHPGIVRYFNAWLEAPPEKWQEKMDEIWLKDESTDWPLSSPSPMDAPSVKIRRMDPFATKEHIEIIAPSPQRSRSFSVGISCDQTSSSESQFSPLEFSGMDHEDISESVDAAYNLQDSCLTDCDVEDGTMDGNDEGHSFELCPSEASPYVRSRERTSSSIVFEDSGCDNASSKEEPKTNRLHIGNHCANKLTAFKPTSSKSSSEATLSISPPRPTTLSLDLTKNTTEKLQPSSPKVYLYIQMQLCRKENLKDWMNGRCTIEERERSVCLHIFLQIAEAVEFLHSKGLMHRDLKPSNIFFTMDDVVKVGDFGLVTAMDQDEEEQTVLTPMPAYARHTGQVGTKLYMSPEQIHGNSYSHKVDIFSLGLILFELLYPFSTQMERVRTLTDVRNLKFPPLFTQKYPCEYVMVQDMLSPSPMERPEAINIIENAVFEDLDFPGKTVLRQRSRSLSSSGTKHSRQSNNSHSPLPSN
In words: PERK in vitro activity assay (isolated), TR-FRET kinase assay. It counts as biochemical. To be noted: isolated PERK enzyme, 1.5 μM ATP; read-out: Biochemical IC50. Put shortly: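 Human PERK catalytic domain (aa 536-1116) phosphorylating 100-200 nM GFP-eIF2a in 50 mM HEPES pH 7.5, 10 mM MgCl2, 1 mM EGTA, 0.01% Brij-35; enzyme-started, 45 min at room temperature. Stopped with 10 mM EDTA, 2 nM Tb-anti-phospho-eIF2a added for 90 min; IC50 from TR-FRET ratios by 4-parameter logistic fit.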
On the technique in general: In TR-FRET formats the signal depends on donor and acceptor labels being close together.

Usually IC50 stands for the concentration that gives 50% inhibition. In the case of `Cc1nc(N)c2c(-c3ccc(NC(=O)C(O)c4cccc(Cl)c4)c(F)c3F)cn(C)c2n1` (stereo not shown) [Example 111, N-(4-(4-amino-2,7-dimethyl-7H-pyrrolo[2,3-d]pyrimidin-5-yl)-2,3-difluorophenyl)-2-(3-chlorophenyl)-2-hydroxyacetamide], the IC50 in assay [1] and in assay [2] was 1 to 25 nM throughout.

Consider `Cc1nc(N)c2c(-c3ccc(NC(=O)C(O)c4cccc(F)c4)c(F)c3F)cn(C)c2n1` (single isomer, unassigned) [Example 110, N-(4-(4-amino-2,7-dimethyl-7H-pyrrolo[2,3-d]pyrimidin-5-yl)-2,3-difluorophenyl)-2-(3-fluorophenyl)-2-hydroxyacetamide], for which the IC50 in assay [1] and in assay [2] was 1 to 25 nM in each case.

`Cc1nc(N)c2c(-c3ccc(NC(=O)C(O)c4cccc(F)c4)cc3F)cn(C)c2n1` (stereo not shown) [Example 79, N-(4-(4-amino-2,7-dimethyl-7H-pyrrolo[2,3-d]pyrimidin-5-yl)-3-fluorophenyl)-2-(3-fluorophenyl)-2-hydroxyacetamide]: the values for the concentration for half-maximal inhibition (IC50) in assay [1] and in assay [2] were 501 to 1000 nM and 51 to 100 nM, respectively.

Take `Cc1nc(N)c2c(-c3ccc(NC(=O)C(O)c4cc(F)cc(C(F)(F)F)c4)cc3F)cn(C)c2n1` (stereo not shown) [Example 88, N-(4-(4-amino-2,7-dimethyl-7H-pyrrolo[2,3-d]pyrimidin-5-yl)-3-fluorophenyl)-2-(3-fluoro-5-(trifluoromethyl)phenyl)-2-hydroxyacetamide]: the 50% inhibitory concentration (IC50) was 251 to 500 nM in assay [1] and 26 to 50 nM in assay [2].

As for `Cc1nc(N)c2c(-c3ccc(NC(=O)C(O)c4cccc(F)c4)c(F)c3C)cn(C)c2n1` (stereo not shown) [Example 13, N-(4-(4-amino-2,7-dimethyl-7H-pyrrolo[2,3-d]pyrimidin-5-yl)-2-fluoro-3-methylphenyl)-2-(3-fluorophenyl)-2-hydroxyacetamide], the IC50 in assay [1] lay within 1000 to 2000 nM; in assay [2] it was 51 to 100 nM.

`Cc1nc(N)c2c(-c3ccc(NC(=O)C(O)c4cc(F)cc(F)c4)cc3F)cn(C)c2n1` (stereo not shown) [Example 83, N-(4-(4-amino-2,7-dimethyl-7H-pyrrolo[2,3-d]pyrimidin-5-yl)-3-fluorophenyl)-2-(3,5-difluorophenyl)-2-hydroxyacetamide]: the IC50 in assay [1] and in assay [2] was 1 to 25 nM throughout.

For `Cc1nc(N)c2c(-c3ccc(NC(=O)C(O)c4ccccc4C)cc3Cl)cn(C)c2n1` (stereo not shown) [Example 93, N-(4-(4-amino-2,7-dimethyl-7H-pyrrolo[2,3-d]pyrimidin-5-yl)-3-chlorophenyl)-2-hydroxy-2-(o-tolyl)acetamide], the IC50 in assay [1] lay in the range of 2000 to 3000 nM; in assay [2] it was 501 to 1000 nM.

Take `Cc1nc(N)c2c(-c3ccc(NC(=O)C(O)c4cc(F)cc(C(F)(F)F)c4)cc3F)cn(C)c2n1` (stereo not shown) [Example 87, N-(4-(4-amino-2,7-dimethyl-7H-pyrrolo[2,3-d]pyrimidin-5-yl)-3-fluorophenyl)-2-(3-fluoro-5-(trifluoromethyl)phenyl)-2-hydroxyacetamide]: the IC50 in assay [1] was in the range of 51 to 100 nM; in assay [2] it was 1 to 25 nM.

Turning to `Cc1nc(N)c2c(-c3ccc(NC(=O)C(O)c4cccc5cnn(C)c45)cc3C)cn(C)c2n1` (single isomer, unassigned) [Example 64, N-(4-(4-amino-2,7-dimethyl-7H-pyrrolo[2,3-d]pyrimidin-5-yl)-3-methylphenyl)-2-hydroxy-2-(1-methyl-1H-indazol-7-yl)acetamide], the 50% inhibitory concentration (IC50) in assay [1] (Homo sapiens, HEK293, 2 h) lay within 2000 to 3000 nM; in assay [2] it was 251 to 500 nM.

`CCc1cc(NC(=O)C(O)c2cccc(F)c2)ccc1-c1cn(C)c2nc(C)nc(N)c12` (stereo not shown) [Example 68, N-(4-(4-amino-2-2,7-dimethyl-7H-pyrrolo[2,3-d]pyrimidin-5-yl)-3-ethylphenyl)-2-(3-fluorophenyl)-2-hydroxyacetamide]: the half-inhibitory concentration (IC50) in assay [1] lay within 26 to 50 nM; in assay [2], 1 to 25 nM.

On to `Cc1nc(N)c2c(-c3cc(F)c(NC(=O)C(O)c4cccc(F)c4)cc3C)cn(C)c2n1` (single isomer, unassigned) [Example 122, N-(4-(4-amino-2,7-dimethyl-7H-pyrrolo[2,3-d]pyrimidin-5-yl)-2-fluoro-5-methylphenyl)-2-(3-fluorophenyl)-2-hydroxyacetamide], for which the values for the 50% inhibitory concentration (IC50) in assay [1] and in assay [2] were 1000 to 2000 nM and 101 to 250 nM, respectively.

Consider `Cc1nc(N)c2c(-c3ccc(NC(=O)C(O)c4ccccc4Cl)cc3F)cn(C)c2n1` (stereo not shown) [Example 70, N-(4-(4-amino-2,7-dimethyl-7H-pyrrolo[2,3-d]pyrimidin-5-yl)-3-fluorophenyl)-2-(2-chlorophenyl)-2-hydroxyacetamide], for which the IC50 in assay [1] (Homo sapiens, HEK293, 2 h) is above 5000 nM; in assay [2], 1000 to 2000 nM.

On to `Cc1cccc(C(O)C(=O)Nc2ccc(-c3cn(C)c4nc(C)nc(N)c34)c(Cl)c2)c1` (stereo not shown) [Example 95, N-(4-(4-amino-2,7-dimethyl-7H-pyrrolo[2,3-d]pyrimidin-5-yl)-3-chlorophenyl)-2-hydroxy-2-(m-tolyl)acetamide], for which the figures for the IC50 in assay [1] and in assay [2] were 251 to 500 nM and 51 to 100 nM, respectively.

In the case of `Cc1cc(NC(=O)Cc2ccc3ccccc3c2)ccc1-c1cn(C)c2ncnc(N)c12` [Example 152, N-(4-(4-amino-7-methyl-7H-pyrrolo[2,3-d]pyrimidin-5-yl)-3-methylphenyl)-2-(naphthalen-2-yl)acetamide], the 50% inhibitory concentration (IC50) in assay [1] (Homo sapiens, HEK293, 2 h) fell in the range of 51 to 100 nM; in assay [2], 1 to 25 nM.

Take `Cn1cc(-c2ccc(NC(=O)C(O)c3cccc(F)c3)cc2)c2c(N)ncnc21` (stereo not shown) [Example 29, N-(4-(4-amino-7-methyl-7H-pyrrolo[2,3-d]pyrimidin-5-yl)phenyl)-2-(3-fluorophenyl)-2-hydroxyacetamide]: the concentration for half-maximal inhibition (IC50) in assay [1] and in assay [2] was 1 to 25 nM in each case.

In the case of `Cc1nc(N)c2c(-c3ccc(NC(=O)C(O)c4cc(F)cc(F)c4)c(F)c3F)cn(C)c2n1` (single isomer, unassigned) [Example 113, N-(4-(4-amino-2,7-dimethyl-7H-pyrrolo[2,3-d]pyrimidin-5-yl)-2,3-difluorophenyl)-2-(3,5-difluorophenyl)-2-hydroxyacetamide], the half-maximal inhibitory concentration (IC50) in assay [1] and in assay [2] was 1 to 25 nM in each case.

Turning to `CCc1ccc(CC(=O)Nc2ccc(-c3cn(C)c4ncnc(N)c34)c(C)c2)cc1` [Example 147, N-(4-(4-amino-7-methyl-7H-pyrrolo[2,3-d]pyrimidin-5-yl)-3-methylphenyl)-2-(4-ethylphenyl)acetamide], the IC50 lay in the range of 51 to 100 nM in assay [1] (Homo sapiens, HEK293, 2 h) and 1 to 25 nM in assay [2].

With `Cc1nc(N)c2c(-c3ccc(NC(=O)C(O)c4ccccc4C(F)(F)F)cc3C)cn(C)c2n1` (stereo not shown) [Example 46, N-(4-(4-amino-2,7-dimethyl-7H-pyrrolo[2,3-d]pyrimidin-5-yl)-3-methylphenyl)-2-hydroxy-2-(2-(trifluoromethyl)phenyl)acetamide], the IC50 in assay [1] (Homo sapiens, HEK293, 2 h) lay within 2000 to 3000 nM; in assay [2], 251 to 500 nM.

Take `Cc1cc(NC(=O)C(O)c2ccccc2Cl)ccc1-c1cn(C)c2ncnc(N)c12` (stereo not shown) [Example 33, N-(4-(4-amino-7-methyl-7H-pyrrolo[2,3-d]pyrimidin-5-yl)-3-methylphenyl)-2-(2-chlorophenyl)-2-hydroxyacetamide]: the IC50 in assay [1] (Homo sapiens, HEK293, 2 h) fell in the range of 51 to 100 nM; in assay [2], 1 to 25 nM.

Turning to `Cc1nc(N)c2c(-c3ccc(NC(=O)C(O)c4cccc(C(F)(F)F)c4)cc3F)cn(C)c2n1` (stereo not shown) [Example 78, N-(4-(4-amino-2,7-dimethyl-7H-pyrrolo[2,3-d]pyrimidin-5-yl)-3-fluorophenyl)-2-hydroxy-2-(3-(trifluoromethyl)phenyl)acetamide], the 50% inhibitory concentration (IC50) in assay [1] (Homo sapiens, HEK293, 2 h) was in the range of 1 to 25 nM; in assay [2], 1 to 25 nM.

As to `Cc1nc(N)c2c(-c3cnc(NC(=O)C(O)c4cccc(C(F)(F)F)c4)cc3C)cn(C)c2n1` (stereo not shown) [Example 131, N-(5-(4-amino-2,7-dimethyl-7H-pyrrolo[2,3-d]pyrimidin-5-yl)-4-methylpyridin-2-yl)-2-hydroxy-2-(3-(trifluoromethyl)phenyl)acetamide], the IC50 in assay [1] lay in the range of 251 to 500 nM; in assay [2], 26 to 50 nM.

For the molecule `CCc1cc(F)cc(C(O)C(=O)Nc2ccc(-c3cn(C)c4nc(C)nc(N)c34)c(C)c2)c1` (stereo not shown) [Example 59, N-(4-(4-amino-2,7-dimethyl-7H-pyrrolo[2,3-d]pyrimidin-5-yl)-3-methylphenyl)-2-(3-ethyl-5-fluorophenyl)-2-hydroxyacetamide], the IC50 in assay [1] lay within 251 to 500 nM; in assay [2], 51 to 100 nM.

Consider `Cc1cc(NC(=O)C(O)c2cccc(F)c2)ccc1-c1cn(C)c2ncnc(N)c12` (stereo not shown) [Example 11, N-(4-(4-amino-7-methyl-7H-pyrrolo[2,3-d]pyrimidin-5-yl)-3-methylphenyl)-2-(3-fluorophenyl)-2-hydroxyacetamide], for which the 50% inhibitory concentration (IC50) in assay [1] and in assay [2] was 1 to 25 nM each time.
